Series [1] relates to C2C12 cells. Nature of the series: C2C12 myotube quantification (Bodipy staining). The series is classed as cell-based. Conditions: over 72 hours, FIG. 11. As to the method:
For myotube quantification the cells were stained with Bodipy (Invitrogen, 1/1000 PBS) according to the manufacturer's directions. The number of myotubes that developed over 72 hours was determined and expressed as a percent of total cells in culture (n=3, 100 cells/culture).
(§1) The data was expressed as mean±SD. The data was expressed as mean±SD. Significance was determined using two way ANOVA followed by Tukey's post hoc test when multiple groups were being evaluated. T test was utilized if 2 groups were being compared. Significance was assigned at p values <0.05.

In series [2] the test system is symptoms consistent with Clostridium tetani infection. Also on record: species or system human. Conditions: in vivo, sc.
The test system of series [3] is fibre disruption at the junction of supraspinatus tendon insertion. Description: Case study: shoulder tendon. The series is classed as in vivo, human. The conditions noted are these: transdermal 600 mcg per dose twice daily, total 30 ml. An excerpt: The subject was a professional footballer. The athlete incurred some fibre disruption at the junction of supraspinatus tendon insertion. The MRI indicated an area of 1.0 cm within the disruptive pathology. […] Most of the affected area was the muscular portion of the junction. […] The athlete had been restricted in both the range of motion they could employ for the injured site as well as the amount of weight bearing activity they could engage for the area. They had been finding it difficult to abduct the arm at the shoulder joint.
The subject undertook an intervention of AOD9604 (SEQ ID NO: 1) at 600 mcg per dose. They applied one ml twice daily. The transdermal application was at 600 mcg per ml. The total application was 30 ml.

Series [4] has as its system Cartilage explants (native cartilage). Description: Native cartilage explant culture. The series is classed as cell-based, calf. The method, then:
Cartilage explants were taken from calf metacarpal-carpal joints and placed in culture in Ham's F-12 supplemented with 20% fetal bovine serum (FBS) in the presence and absence of AOD9604 (SEQ ID NO: 1) (10 or 100 μg/ml) for 1 week or (100 or 500 μg/ml) for 2 weeks.
The tissue was harvested and water content and dry weight measured. The tissue was then digested with papain (Sigma, 40 μg/ml) for 48 h at 65° C. DNA content was determined using the Hoechst 33258 dye binding assay (Polysciences) and fluorometry (excitation 365 nm, emission 458 nm). Proteoglycan content was determined by measuring the amount of sulphated glycosaminoglycans using the dimethylmethylene blue dye binding assay and spectrophotometry (525 nm). Collagen content was determined by measuring the hydroxyproline content of an aliquot of the papain digest hydrolyzed in 6N HCl for 18 h at 110° C. The hydroxyproline content was determined using the chloramine-T/Ehrlich's reagent assay and spectrophotometry (560 nm). The cellularity was quantified by measuring the DNA content using Hoescht 33258 dye binding assay (Polysciences) and fluorometry (excitation 365 nm, emission 458 nm.
All experiments were done three times and each condition was done in triplicate. The data was expressed as mean±SD. […]. Significance was determined using two way ANOVA followed by Tukey's post hoc test when multiple groups were being evaluated. T test was utilized if 2 groups were being compared. Significance was assigned at p values <0.05.

Series [5] deals with C2C12 cells. Nature of the series: C2C12 differentiation into myoblasts (myogenin staining). The class given is cell-based. As to the method:
C2C12 (2×10^3 cells/cm^2) were grown in DMEM and 10% FBS. Differentiation was induced by replacing growth media with differentiation media which consists of DMEM supplemented with 2% horse serum. The cells were grown in the absence or presence of AOD9604 (10 or 100 μg/ml). The cells were fixed in 4% paraformaldehyde and co-stained for myogenin (a muscle specific muscle marker (transcription factor) 1/250 Tris-Triton X buffer) and Bodipy (cytoplasmic stain, Invitrogen, 1/1000 PBS). The number of cells stained for myogenin were counted in 4 random fields (up to 100 cells/field) (n=4). The percent of cells that stained positively for myogenin was calculated.
as §1

This is an account of results in patent US10111933B2, “Use of growth hormone fragments” (Metabolic Pharmaceuticals Pty Ltd, priority 2011, dated 2018).

Entries after “also recorded” stand apart in the source; their conditions may differ. Ends that are not written are not given here.

As to “YLRIVQCRSVEGSCGF (cysteine pairing not given here) [AOD9604]”, the formation of myotubes result with C2C12 cells [1] was “no affect”. In addition, the formation of myotubes result in the series with C2C12 cells [1] (listed as AOD) is given as “does not enhance”. In series [2], the pain entry is recorded as “considerably reduced”; the resolution of symptoms result is on record as “fully resolved at around day eight”; the return to activity result is “resumed full running and moderate weight lifting activity on day eight”. Besides, in series [3], the “residual pain or discomfort” value was “no residual pain or discomfort”; the resolution of injury entry was “resolved in three weeks”; the “return to weight bearing activities” value is “returned to full weight bearing activities and rotation activity”; the “subsequent MRI” value was “full integrity had returned to the junctional area”. The “effect on native cartilage” value in series [4] (500 μg/ml, FIGS. 5-8) is reported as “no effect”. In addition, in series [4] (FIGS. 5 and 7), the “proteoglycan content of native cartilage” value was “does not affect”. Further, the “collagen content of native cartilage” value in series [4] (FIGS. 6 and 8) is recorded as “does not affect”. For the same sequence, the “toxicity / DNA content of native cartilage” value in series [4] (up to 500 μg/ml, 2 weeks of treatment, FIG. 4, listed as AOD) is listed as “not toxic; also recorded: no effect”. Further, the “differentiation of C2C12 cells into myoblasts” value (“differentiation” for short) in the series on C2C12 cells [5] (3 days (72 hours), doses as low as 10 μg/ml, FIG. 10) is “enhances”. The “differentiation” value with C2C12 cells [5] (3 days (72 hours), doses as low as 10 μg/ml, FIG. 10, listed as AOD) was “induces differentiation”. Also, in the series with C2C12 cells [5] (after 24 hours of treatment, FIG. 9), the “differentiation” value was “induces differentiation”.
